# Data: patent publication US20260207641A1, “COMBINATION THERAPY FOR CANCER USING ROS-ACTIVATED PRODRUGS AND ROS-AMPLIFYING THERAPEUTICS” (UWM Research Foundation, Inc., priority 2023, published 2026)
# “And” between values parts separate entries of the source, which are not always exact repeats. Equal entries are not always repeated. Where two headings read alike, the source gives them in different places.
# Experiments:
# MDA-MB-468 cells [1] = test: Cytotoxicity dose response (CellTiter-Glo, 48 h); type: cell-based, human
# MCF7 cells [2] = test: cells; type: cell-based, human
# U-87 MG cells [3] = test: cells; type: cell-based
# MCF 10A (normal cells) = test: Cytotoxicity dose response (CellTiter-Glo, 48 h); type: cell-based, human
# MDA-MB-231 cells = test: cells; type: cell-based, human
# MDA-MB-436 cells = test: cells; type: cell-based, human
# HMEC cells = test: cells; type: cell-based; conditions: Homo sapiens, 48 h
# MDA-MB-468 cells [4] = type: cell-based, human
# MCF 10A cells = type: cell-based, human
# [5] = system: extracellular H2O2 in MDA-MB-468 cells; test: Extracellular H2O2 measurement (Amplex Red assay); type: cell-based, human; conditions: MDA-MB-468 at maximum safe ascorbic acid dose, 48 h
# [6] = system: extracellular H2O2 in MCF7 cells; test: Extracellular H2O2 measurement (Amplex Red assay); type: cell-based, human; conditions: 48 h
# [7] = system: extracellular H2O2 in U-87 MG cells; test: Extracellular H2O2 measurement (Amplex Red assay); type: cell-based; conditions: U-87 MG at maximum safe ascorbic acid dose, 48 h
# [8] = system: extracellular H2O2 in MCF 10A cells; test: Extracellular H2O2 measurement (Amplex Red assay); type: cell-based, human; conditions: MCF 10A at maximum safe ascorbic acid dose, 48 h
# [9] = system: intracellular H2O2 in MDA-MB-468 cells; test: Intracellular H2O2 measurement (AbGreen indicator); type: cell-based, human; conditions: MDA-MB-468 under ascorbic acid treatment, 48 h
# MDA-MB-468 cells [10] = type: cell-based, human; remark: listed apart in the source
# [11] = system: MDA-MB-468 breast cancer xenograft; set-up: species or system immune-deficient female nude mice; conditions: mouse, in vivo
# MCF7 cells [12] = system: MCF7 cells
# U-87 MG cells [13] = system: U-87 MG cells
# MDA-MB-468 cells [14] = conditions: cited from earlier work
compound,measurement,setting,value
O=C1O[C@H]([C@@H](O)CO)C(O)=C1O [Vitamin C],Maximum Safe Dose (MSD),MDA-MB-468 cells [1],1 mM and 1.00 mM
same,IC50,MCF7 cells [2],970 ± 70 µM
same,Maximum Safe Dose (MSD),MCF7 cells [2],0.25 mM
same,IC50,"MCF7 cells [2]; Homo sapiens, MCF7, 48 h",1000 µM
same,Maximum Safe Dose (MSD),U-87 MG cells [3],0.3 mM and 0.30 mM
same,IC50,"U-87 MG cells [3]; Homo sapiens, U-87 MG, 48 h",1 mM
same,IC50,MCF 10A (normal cells),4200 ± 400 µM
same,Maximum Safe Dose (MSD),MCF 10A (normal cells),1.25 mM
same,Maximum Safe Dose (MSD),MDA-MB-231 cells,1 mM
same,IC50,"MDA-MB-231 cells; Homo sapiens, MDA-MB-231, 48 h",2.23 ± 0.3 mM
same,Maximum Safe Dose (MSD),MDA-MB-436 cells,1 mM
same,IC50,"MDA-MB-436 cells; Homo sapiens, MDA-MB-436, 48 h",1.39 ± 0.1 mM
same,IC50,HMEC cells,2.67 ± 0.4 mM
same,dose found to be safe,MDA-MB-468 cells [4],1 mM
same,dose found to be safe,MCF 10A cells,1 mM
same,extracellular H2O2 level,[5],around 10 μM
same,H2O2 generated (most substantial change),"[6]; MCF7, increasing mM ascorbic acid",over 20 μM
same,extracellular H2O2 level,[6]; MCF7 at maximum safe ascorbic acid dose,~7 µM
same,extracellular H2O2 level,[7],~7 µM
same,extracellular H2O2 level,[8],~5 µM
same,intracellular H2O2 level compared to untreated samples,[9],significant threefold increase
same,observable DNA damage,MDA-MB-468 cells [10],did not show any observable DNA damage
same,effect on tumor size,[11],observable inhibitory effects on the tumor size
same,dose found to be safe,MCF7 cells [12],0.25 mM
same,dose found to be safe,U-87 MG cells [13],0.25 mM
CCCOC(=O)c1cc(O)c(O)c(O)c1 [Propyl Gallate],MSD (Maximum Safe Dose),MDA-MB-468 cells [1],25.00 µM
same,SI (Selectivity Index),MDA-MB-468 cells [1],1
same,SI of Prodrug Combined with Maximum Safety Dose of Pro-oxidant,MDA-MB-468 cells [1],3
same,IC50,"MDA-MB-468 cells [1]; Homo sapiens, MDA-MB-468, 48 h",49.2 ± 1.83 µM
same,MSD (Maximum Safe Dose),MCF 10A (normal cells),12.50 µM
same,IC50,"MCF 10A (normal cells); Homo sapiens, MCF-10A, 48 h",51.4 ± 5.45 µM
Arsenic Trioxide,MSD (Maximum Safe Dose),MDA-MB-468 cells [1],0.79 µM
same,SI (Selectivity Index),MDA-MB-468 cells [1],1
same,SI of Prodrug Combined with Maximum Safety Dose of Pro-oxidant,MDA-MB-468 cells [1],5
same,IC50,MDA-MB-468 cells [1]; read-out: IC50,6.27 ± 0.33 µM
same,MSD (Maximum Safe Dose),MCF 10A (normal cells),1.56 µM
same,IC50,MCF 10A (normal cells); read-out: IC50,8.52 ± 0.4 µM
CC1(C)CCC2=C(O1)c1ccccc1C(=O)C2=O [β-Lapachone],MSD (Maximum Safe Dose),MDA-MB-468 cells [1],0.78 µM
same,SI (Selectivity Index),MDA-MB-468 cells [1],3
same,SI of Prodrug Combined with Maximum Safety Dose of Pro-oxidant,MDA-MB-468 cells [1],2
same,IC50,"MDA-MB-468 cells [1]; Homo sapiens, MDA-MB-468, 48 h",1.06 ± 0.17 µM
same,MSD (Maximum Safe Dose),MCF 10A (normal cells),1.56 µM
same,IC50,"MCF 10A (normal cells); Homo sapiens, MCF-10A, 48 h",3.42 ± 0.22 µM
Cc1c(C)c2c(c(C)c1O)CCC(C)(CCCC(C)CCCC(C)CCCC(C)C)O2 (stereo not drawn) [Vitamin E],MSD (Maximum Safe Dose),MDA-MB-468 cells [1],1.56 µM
same,SI (Selectivity Index),MDA-MB-468 cells [1],5
same,SI of Prodrug Combined with Maximum Safety Dose of Pro-oxidant,MDA-MB-468 cells [1],11
same,IC50,"MDA-MB-468 cells [1]; Homo sapiens, MDA-MB-468, 48 h",76.5 ± 6.62 µM
same,MSD (Maximum Safe Dose),MCF 10A (normal cells),25.00 µM
same,IC50,"MCF 10A (normal cells); Homo sapiens, MCF-10A, 48 h",376 ± 21.4 µM
COc1cc(/C=C/C(=O)N2CCC=CC2=O)cc(OC)c1OC [Piperlogumine],MSD (Maximum Safe Dose),MDA-MB-468 cells [1],0.78 µM
same,SI (Selectivity Index),MDA-MB-468 cells [1],2
same,SI of Prodrug Combined with Maximum Safety Dose of Pro-oxidant,MDA-MB-468 cells [1],6
same,IC50,"MDA-MB-468 cells [1]; Homo sapiens, MDA-MB-468, 48 h",2.24 ± 0.05 µM
same,MSD (Maximum Safe Dose),MCF 10A (normal cells),1.56 µM
same,IC50,"MCF 10A (normal cells); Homo sapiens, MCF-10A, 48 h",4.91 ± 0.51 µM
O=C(O)CCCc1ccc(N(CCCl)CCCl)cc1 [Chlorambucil],Fold Change,MDA-MB-468 cells [1],1 fold
same,IC50,"MDA-MB-468 cells [1]; Homo sapiens, MDA-MB-468, 48 h",30.2 ± 2.3 µM
same,IC50,"MDA-MB-468 cells [1]; Homo sapiens, MDA-MB-468, read-out: IC50 in combination with Vitamin C Safe Dose",28.7 ± 2.4 µM
same,IC50,MDA-MB-468 cells [14],34.4 µM
O=c1c(O)c(-c2ccc(O)c(O)c2)oc2cc(O)cc(O)c12 [Quercetin],MSD (Maximum Safe Dose),MDA-MB-468 cells [1],3.13 µM
same,IC50,"MDA-MB-468 cells [1]; Homo sapiens, MDA-MB-468, 48 h",15.8 ± 2.15 µM
same,MSD (Maximum Safe Dose),MCF 10A (normal cells),6.25 µM
same,IC50,"MCF 10A (normal cells); Homo sapiens, MCF-10A, 48 h",19.6 ± 1.24 µM
O=C(OC1Cc2c(O)cc(O)cc2OC1c1cc(O)c(O)c(O)c1)c1cc(O)c(O)c(O)c1 (stereo not drawn) [EGCG],MSD (Maximum Safe Dose),MDA-MB-468 cells [1],12.50 µM
same,SI (Selectivity Index),MDA-MB-468 cells [1],0.5
same,SI of Prodrug Combined with Maximum Safety Dose of Pro-oxidant,MDA-MB-468 cells [1],2
same,IC50,"MDA-MB-468 cells [1]; Homo sapiens, MDA-MB-468, 48 h",65 ± 3.45 µM
same,MSD (Maximum Safe Dose),MCF 10A (normal cells),6.25 µM
same,IC50,"MCF 10A (normal cells); Homo sapiens, MCF-10A, 48 h",28.5 ± 2.55 µM
